Data from US20110251158A1, “FULLERENE THERAPIES FOR INFLAMMATION AND INHIBITION OF BUILD-UP OF ARTERIAL PLAQUE” (Luna Innovations Incorporated, priority 2008, published 2011).
Like-named read-outs stand apart in the source and are kept apart here.

Experiments:
[1] = Solubility; format: physicochemical
[2] = tested on: U937 monocyte cells; details: for % Viability: human
Description: The human monocytic cell line U937 was obtained from the American Type Culture Collection (Manassas, Va., USA). Cells are maintained in RPMI 1640 media enriched with 10% heat-inactivated FBS, 2 mM L-Glutamine, 10 mM HEPES buffer, 0.1 mM non-essential Amino Acids, 1% antibiotic/antimycotic, and 50 uM beta mercaptoethanol at 37° C., 6% CO2.

C70-(DMAE)4
solubility in buffer ([1]; buffer): moderate solubility

C70-Tetrapyridine
solubility ([1]; DI water and phosphate buffered saline): > 2000 µg/mL

C70-Tetraphosphate
dissolution in aqueous solution ([1]; slightly basic aqueous solution, pH adjusted to 7.4): remained dissolved

O=C1O[C@H]([C@@H](O)CO)C(O)=C1O [Vitamin C]
toxic effects on the viability of serum-starved cell [2]: did not have toxic effects
% Viability ([2]; 3 day, 0.67 uM): 98.8% ± 0.06
% Viability ([2]; 3 day, 6.7 uM): 97.4% ± 1.86
% Viability ([2]; 3 day, 67 uM): 98.2% ± 0.67
% Viability ([2]; 6 day, 0.67 uM): 93.8% ± 1.09
% Viability ([2]; 6 day, 6.7 uM): 91.2% ± 0.33
% Viability ([2]; 6 day, 67 uM): 90.9% ± 0.07
% Viability ([2]; 9 day, 0.67 uM): 60.9% ± 1.13
% Viability ([2]; 9 day, 6.7 uM): 61.8% ± 1.10
% Viability ([2]; 9 day, 67 uM): 60.7% ± 0.28
